In paper PMC9249674, “A small-molecule Skp1 inhibitor elicits cell death by p53-dependent mechanism” (iScience, 2022):

Columns and labels:
[1] = system: A549 cells; assay: Cell viability assay (Cell-Titer GLO); format: cell-based, human; conditions: Homo sapiens; A549; Lung cancer; 48 h; read-out: Anti-proliferative EC50
Experimental: The media was according to culture conditions of each individual cell line (mentioned above). After 12 hrs, compounds were added in a total volume of 5 μL of media (two-fold diluted) to each well with final concentrations from 5 nM to 30 μM. The measurements were conducted 48 hrs after seeding of the cells. Then, 25 μL of Cell-Titer GLO reagent (Promega) was added, and luminescence was measured on an EnSpire multimode plate reader (PerkinElmer), according to the manufacturer’s instructions. The estimated in vitro half-maximal inhibitory concentration (EC50) values were calculated using GraphPad Prism® v6.0 (San Diego, CA) software. The cell viability for A549 cells was also performed for 72- and 96-hrs by using the same experimental conditions as described above.

[2] = biological target: T1, Skp1-ΔSkp2^F−box-peptide interaction (Homo sapiens, UniProt P63208); assay: FP-based in vitro competition assay; format: binding; conditions: 200 μM compound, 25 μM Skp1^WT, 500 nM tracer
T1 construct: recombinantly purify intact (Skp1^WT) and truncate (ΔSkp1^1−140; lacking H8-helix) forms of Skp1; His6; made in house; host or cells: Escherichia coli BL21 (DE3)
T1 sequence (P63208 whole entry, stated change not applied, the tested form may be a part): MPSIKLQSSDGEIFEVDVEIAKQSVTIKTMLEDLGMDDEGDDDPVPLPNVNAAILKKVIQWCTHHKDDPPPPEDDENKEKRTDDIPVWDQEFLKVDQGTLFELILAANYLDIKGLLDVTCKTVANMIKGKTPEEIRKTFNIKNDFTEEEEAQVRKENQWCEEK
Experimental: FP measurements were performed using an EnVision multilabel Reader (Perkin Elmer). […] Lyophilized F-box-FAM peptide was initially dissolved in a Tris buffer (20 mM Tris-HCl pH 9.0, 150 mM NaCl, 2 mM DTT), and then a stock solution of 100 μM was prepared by subsequent dilutions in a FP buffer (20 mM Tris-HCl pH 8.0, 150 mM NaCl, 2 mM DTT, 5% (v/v) glycerol, 0.001% (v/v) Triton X-100). Specific controls groups included free F-box-FAM (tracer), bound F-box-FAM in the presence of protein (Skp1^WT or ΔSkp1^1−140), and FP buffer for every measurement, allowing accurate estimation of specific polarization.
The selected subset of compounds were initially assayed at final concentration of 200 μM. The compounds were incubated at room temperature with Skp1^WT for 1 hr, followed by the addition of the tracer. […] After incubation for another 2 hrs, FP signals was measured on an EnVision multilabel Reader. The FP response was measured in quadruplicates with controls including free F-box-FAM (tracer), bound Skp1^WT-F-box-FAM, and FP buffer. The resultant FP values were plotted as bar graphs using ORIGIN Lab software.
For gradient FP assay, protein samples were mixed with an appropriate concentrations of ligand over the range of several folds. […] The IC50 value of the compound in the gradient-concentration assay was determined with nonlinear regression and fitting using the following equation in GraphPad Prism® v6.0 (San Diego, CA). Y = Bottom + (Top – Bottom)/(1 + 10^X−LogIC50). […] In short, the relationship between the IC50 of the inhibitor and the Ki of the inhibitor depends on the KD of the fluorescent ligand and the concentration of the receptor.

| inhibition at 200 µM [2] [%] | SMILES | EC50 [1] [µM] |
| --- | --- | --- |
|  | C/C=C(/C)C(=O)O[C@H]1[C@@H]2[C@H](C)C(=O)O[C@@H]2C[C@@H](C)[C@@H]2C=CC(=O)[C@]21C [6-OAP, Brevilin A, reference compound] | 14.1 ± 2.25 |
| > 50 | COc1ccc(-c2cc(-c3cccc(N)c3)ccn2)cc1 [JH-3, 3-(2-(4-Methoxyphenyl)pyridin-4-yl)aniline] |  |
